Patent US20090191185A1, “Reducing Cancer Cell Invasion Using an Inhibitor of Toll Like Receptor Signaling” (THE UAB RESEARCH FOUNDATION, priority 2006, published 2009)
Entries after “also recorded” stand apart in the source; their conditions may differ. Oligonucleotides are written 5' to 3', each unit as a sugar letter and its base; * is a phosphorothioate linkage, no mark a phosphodiester; rarer units and linkages stand in square brackets, end groups in braces. Plain capitals give the bases only. d = 2'-deoxy (DNA)

What was measured:
Type in all cases: cell-based, human
MDA-MB-231 cells = test: Matrigel invasion assay, MDA-MB-231 cells
Description: (§1) In vitro invasion assays. For the Matrigel-invasion assay the cells were plated at the density of 5×10^4 (MDA-MB-231, U373, D54MG), 15×10^4 (T47-D) or 30×10^4 (MCF-7) cells per upper well in 750 μl of normal culture medium (Virtanen et al., Cancer Res. 62:2708-14 (2002)), indicated concentrations of the various CpG-ODNs, non-CpG-ODNs or vehicle were added to both the upper and lower wells. When indicated, aprotinin (2 μM), GM6001 (2 μM), MMP-8 inhibitor 1 (8 nM) or the same volume of the corresponding control compound, control IgG or neutralizing anti-MMP-13 antibody (R& D Systems, Minneapolis, Minn., both at 12 μg/ml) or chloroquine (10 μM) were also added to both upper and lower wells. The cells were allowed to invade for 18 h, after which the inserts were removed and stained with the Hema 3 Stain set (Fisher Diagnostics, Middletown, Pa.), according to the manufacturer's recommendation. The number of invaded cells was counted from 5 pre-selected microscopic fields using a 40× objective. To assess invasion in a three-dimensional type I collagen gel, acid solubilized type I collagen (0.9 ml) was added to the Costar Transwell dishes (Corning, Inc., Corning, N.Y.) and gelled over 45 min at 37° C. The collagen was prepared using rat-tail type 1 collagen dissolved in 0.2% acetic acid at 3.2 mg/ml and gelled by neutralizing the acid with 0.3 N NaOH containing phenol red as a pH indicator. A final concentration of 3.0 mg/ml was obtained. Media, containing vehicle or 10 μM type C CpG-ODN was men added to the upper and lower chambers prior to the addition of 5×10^5 cells to the surface of the collagen gel in the presence of serum-containing medium. […] Tumor cell invasion (depth and number of cells below the surface) was assessed by light microscopy in a minimum of four randomly selected sections for each experimental sample. The number of invading cells per high power field (400×) were counted and averaged. The depth of invasion was also measured in four randomly selected areas for each sample using photomicrograph of each sample.

[1] = test system: MMP-activity in MDA-MB-231 cells; test: gelatin zymogram of MDA-MB-231 supernatants; conditions: 2 μM added to final incubation of gels
Description: Zymograms. The zymograms were performed as previously described (Suarex-Cuervo et al., Clin. Exp. Metastasis 21:525-33 (2004)). In this assay, the gelatinolytic bands represent the following MMPs: 120 kDa band represents MMP-9 and neutrophil gelatinase associated lipocalin complex, 90 kDa band represents pro-MMP-9 and the 72 kDa band represents proMMP-2. Briefly, MDA-MB-231 cells were plated on 12-well plates and allowed to reach confluency. The cells were then rinsed with PBS and serum-free medium, with the indicated concentrations of type C CpG-ODNs, type C non-CpG-ODNs or vehicle was applied for 24 h.

PC-3 cells = test: Matrigel invasion assay, PC-3 cells
Description: In vitro invasion assays. For the Matrigel-invasion assay the cells were plated at the density of 5×10^4 (PC-3, Du-145, LnCaP and MDA PCa 2b) cells per upper well in 500 μl of normal culture medium, Indicated concentrations of the various CpG-ODNs, bacterial DNA (E. Coli, Sigma, St. Louis, Mo.) or vehicle were added to both the upper and lower wells. When indicated, p38- or JNK-inhibitor (both at final concentration of 10^−5 M), control IgG or neutralizing anti-MMP-13 antibody (R&. D Systems, Minneapolis, Minn., both at 12 μg/ml) or chloroquine (10 μM) were also added to both upper and lower wells. […] The number of invaded cells were counted from 5 pre-selected microscopic fields using a 40× objective.

NFκB reporter gene = NFκB reporter gene assay in transfected MDA-MB-231 pools
Description: MDA-MB-231 cells were stably transfected with pIRES-EGFP empty vector (EV) or with pIRES-EGFP-TRAF6DN-Flag. Stable pools were Flow-sorted for the expression of EGFP for 3 cycles. […] The same blots were stripped and re-blotted with antibodies against Flag, GFP and actin. For FIG. 12B, the various cells were transiently transfected with a NFκB reporter gene and treated with CpG-ODN or TNF-α. Reporter gene activation was calculated as fold-increase vs. vehicle-treatment. Mean±SD, n=6. * p<0.05, *** p<0.001 pIRES-EV vs. pIRES-EGFP-TRAF6DN. For FIG. 12C, the pIRES-EGFP and pIRES-EGFP-TRAF6DN cells were plated on Matrigel-assays and treated with vehicle or with 2 or 10 μM Non-CpG-ODN or CpG-ODN, The number of invaded cells were counted microscopically 22 h later. Data are expressed as fold-increase in treatment-induced invasion, mean±sd, n±3-6. * p<0.05, ** p<0.01 pIRES-EGFP vs. pIRES-EGFP-TRAF6DN.
Stable transfection of TRAF6 into MDA-MB-231 breast cancer cells. The cDNA encoding for dominant negative TRAF6 has been described previously (Yeo et al., (2003) J. Biol. Chem. 278:22563-22573). The pIRES-EGF-DNTRAF6-Flag and pIRES-EGF were stably transfected into the MDA-MB-231 cells. The established stable pools were submitted to three cycles of Flow-sorting for highest emission of GFP, to enrich the populations of transfected cells. […]

[2] = test system: MCF-10A mammary epithelial cells; test: Matrigel invasion assay, MCF-10A cells; conditions: 1 and 10 μM
[3] = test system: MCF-7 breast cancer cells; test: Matrigel invasion assay, MCF-7 cells; conditions: 1 and 10 μM
Description: as §1, with “objective.” for “objective. To assess invasion in a three-dimensional type I collagen gel, acid solubilized type I collagen (0.9 ml) was added to the Costar Transwell dishes (Corning, Inc., Corning, N.Y.) and gelled over 45 min at 37° C. The collagen was prepared using rat-tail type 1 collagen dissolved in 0.2% acetic acid at 3.2 mg/ml and gelled by neutralizing the acid with 0.3 N NaOH containing phenol red as a pH indicator. A final concentration of 3.0 mg/ml was obtained. Media, containing vehicle or 10 μM type C CpG-ODN was men added to the upper and lower chambers prior to the addition of 5×10^5 cells to the surface of the collagen gel in the presence of serum-containing medium.”

[4] = test system: MDA-MB-231, T47-D or MCF-7 cells; test: MTS cell viability assay, breast cancer cells
Description: Cell viability assays. MDA-MB-231, T47-D or MCF-7 cells were plated at the density of 1000 cells/well in 96-well plates in normal culture medium, and cultured for the indicated periods of time with 10 μM type C CpG-ODN or vehicle. Cell viability was assessed after MTS was added for the final 2 hours of the experimental cultures as recommended by the manufacturer (CellTiter 96 AQueous Non-Radioactive Cell Proliferation Assay, Promega, Madison, Wis.).

In the case of `CNC(=O)[C@H](Cc1c[nH]c2ccccc12)NC(=O)[C@@H](CC(=O)NO)CC(C)C` [GM6001], the “effect on type C CpG-induced invasion of MDA-MB-231 cells” value (MDA-MB-231 cells; inhibitor 2 μM, type C CpG-ODN 10 μM) is reported as “inhibited CpG-ODN-induced invasion; also recorded: inhibited by the MMP inhibitor” and the “effect on CpG-ODN-induced gelatinolytic band of about 50 kDa” value [1] is reported as “abolished; also recorded: did disappear”.
For `CCN(CC)CCCC(C)Nc1ccnc2cc(Cl)ccc12` (stereo not drawn) [chloroquine], the “effect on non-CpG-ODN-induced invasion” value (MDA-MB-231 cells; chloroquine 10 μM, non-CpG-ODN 10 μM, 18 h) was “inhibited”, the “effect on CpG-ODN-induced invasion” value (MDA-MB-231 cells; chloroquine 10 μM, type C CpG-ODN 10 μM, 18 h) was “blocked; also recorded: inhibited” and the “effect of chloroquine on E. coli DNA-induced invasion of PC-3 cells” value (PC-3 cells; chloroquine 10 μM, 1000 ng/ml E. coli DNA, 20 h) was “inhibited”. The “effect of chloroquine on CpG-ODN-induced invasion of PC-3 cells” value (PC-3 cells; chloroquine 10 μM, CpG-ODN 5 μM, 18 h) was “significantly inhibited; also recorded: inhibits CpG-ODN-induced invasion”.
`C[S+]([O-])c1ccc(-c2nc(-c3ccncc3)c(-c3ccc(F)cc3)[nH]2)cc1` (stereo not drawn) [p38 inhibitor, SB203580] was tested, and the “effect of MAP-kinase inhibitors on CpG-ODN-induced invasion of PC-3 cells” value (PC-3 cells; inhibitor 10^−5 M, CpG-ODN 5 μM, 18 h) was “Neither of these inhibitors affected CpG-ODN-induced invasion”.
With TNF-α the “NFκβ-promoter activity in empty vector cells” value (NFκB reporter gene; pIRES-EGFP empty vector MDA-MB-231) was “significant increase in NFκβ-promoter activity” and the “NFκβ-promoter activity in TRAF6DN-pool” value (NFκB reporter gene; pIRES-EGFP-TRAF6DN MDA-MB-231) was “blunted”.
In the case of aprotinin, the “effect on CpG-ODN-induced gelatinolytic band of about 50 kDa” value [1] is reported as “did not disappear; also recorded: not inhibited”.
In the case of “type C non-CpG-ODN: 5′-tgc tgc tgc tig caa gca get tga t-3′ (SEQ ID NO:6), non-CpG-ODN control (DNA dT*dG*dC*dT*dG*dC*dT*dG*dC*dT*dT*dG*dC*dA*dA*dG*dC*dA*dG*dC*dT*dT*dG*dA*dT)”, the “invasion of MCF-10A cells” value [2] is reported as “stimulated invasion”, the “invasion of MCF-10A cells” value ([2]; listed as non-CpG-ODN) is reported as “induced a significant invasion response” and the “invasion of TLR9 negative MCF-7 cells” value [3] is reported as “did not, however, stimulate invasion”. For the same compound, the “invasion of TLR9 negative MCF-7 cells” value ([3]; listed as non-CpG-ODN) was “no significant effect” and the “cell viability (MTS), longer incubation” value [4] was “significantly decreased viability”.
